Literature values, collected in US8673972B2, “Human papilloma virus as predictor of cancer prognosis” (Foundation Medicine, Inc., priority 2012, dated 2014).

Legend:
Settings in all cases: stated in words only
[1] = molecular target: CDK7 (Homo sapiens, UniProt P50613)
[2] = molecular target: CDK4 (Homo sapiens, UniProt P11802)
[3] = molecular target: CDK1 (Homo sapiens, UniProt P06493)
[4] = molecular target: CDK9 (Homo sapiens, UniProt P50750)
[5] = molecular target: CDK2 (Homo sapiens, UniProt P24941)

Sequence of CDK9 (P50750 whole entry): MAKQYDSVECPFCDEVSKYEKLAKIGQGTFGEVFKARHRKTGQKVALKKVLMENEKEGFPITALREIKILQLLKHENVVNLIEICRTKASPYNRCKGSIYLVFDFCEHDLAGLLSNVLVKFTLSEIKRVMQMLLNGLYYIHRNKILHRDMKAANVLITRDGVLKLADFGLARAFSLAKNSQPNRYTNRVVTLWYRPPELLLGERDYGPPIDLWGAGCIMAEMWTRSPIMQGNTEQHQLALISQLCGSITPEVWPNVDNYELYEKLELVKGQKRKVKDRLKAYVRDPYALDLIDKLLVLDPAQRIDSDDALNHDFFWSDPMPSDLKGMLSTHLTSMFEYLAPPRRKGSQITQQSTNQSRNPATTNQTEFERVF
Sequence of CDK9 (O60563 whole entry partner): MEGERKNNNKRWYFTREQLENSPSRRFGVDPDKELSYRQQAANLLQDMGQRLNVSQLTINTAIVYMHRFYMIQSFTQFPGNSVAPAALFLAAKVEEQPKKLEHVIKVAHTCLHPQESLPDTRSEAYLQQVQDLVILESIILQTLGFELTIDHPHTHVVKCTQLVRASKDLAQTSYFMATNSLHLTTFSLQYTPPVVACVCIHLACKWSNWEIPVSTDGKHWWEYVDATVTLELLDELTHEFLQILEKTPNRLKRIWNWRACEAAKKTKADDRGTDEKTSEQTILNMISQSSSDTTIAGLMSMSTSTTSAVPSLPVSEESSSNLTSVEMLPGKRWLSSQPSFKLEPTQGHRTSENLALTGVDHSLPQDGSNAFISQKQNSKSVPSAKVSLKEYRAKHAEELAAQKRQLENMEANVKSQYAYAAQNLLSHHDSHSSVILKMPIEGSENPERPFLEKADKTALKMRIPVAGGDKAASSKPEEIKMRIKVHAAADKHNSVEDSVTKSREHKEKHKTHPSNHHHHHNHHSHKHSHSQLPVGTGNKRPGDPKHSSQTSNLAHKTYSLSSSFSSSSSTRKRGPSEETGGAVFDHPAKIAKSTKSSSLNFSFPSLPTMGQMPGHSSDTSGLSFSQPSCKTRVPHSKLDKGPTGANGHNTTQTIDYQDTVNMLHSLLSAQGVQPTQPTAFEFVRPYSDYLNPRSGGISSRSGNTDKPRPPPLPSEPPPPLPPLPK
Sequence of CDK1 (P06493 whole entry): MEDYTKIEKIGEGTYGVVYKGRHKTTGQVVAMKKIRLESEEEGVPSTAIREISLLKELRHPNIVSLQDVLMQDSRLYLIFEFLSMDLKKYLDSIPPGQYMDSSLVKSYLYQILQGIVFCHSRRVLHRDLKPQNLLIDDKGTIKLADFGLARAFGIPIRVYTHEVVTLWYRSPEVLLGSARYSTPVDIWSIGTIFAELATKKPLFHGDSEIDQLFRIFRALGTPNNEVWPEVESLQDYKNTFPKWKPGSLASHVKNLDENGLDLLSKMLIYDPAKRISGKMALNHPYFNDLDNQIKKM
Sequence of CDK1 (P14635 whole entry partner): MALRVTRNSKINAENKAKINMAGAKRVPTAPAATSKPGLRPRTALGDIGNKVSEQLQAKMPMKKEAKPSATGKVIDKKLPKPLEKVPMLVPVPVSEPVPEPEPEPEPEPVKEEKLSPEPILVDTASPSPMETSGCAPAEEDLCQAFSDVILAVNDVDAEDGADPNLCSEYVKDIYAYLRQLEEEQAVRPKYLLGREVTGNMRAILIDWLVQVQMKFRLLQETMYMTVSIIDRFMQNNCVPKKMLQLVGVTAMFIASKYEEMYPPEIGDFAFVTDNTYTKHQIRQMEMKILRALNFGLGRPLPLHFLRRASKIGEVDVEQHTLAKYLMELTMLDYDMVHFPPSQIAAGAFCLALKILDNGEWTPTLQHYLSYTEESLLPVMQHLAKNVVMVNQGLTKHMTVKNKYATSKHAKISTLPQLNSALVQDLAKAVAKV
Sequence of CDK7 (P50613 whole entry): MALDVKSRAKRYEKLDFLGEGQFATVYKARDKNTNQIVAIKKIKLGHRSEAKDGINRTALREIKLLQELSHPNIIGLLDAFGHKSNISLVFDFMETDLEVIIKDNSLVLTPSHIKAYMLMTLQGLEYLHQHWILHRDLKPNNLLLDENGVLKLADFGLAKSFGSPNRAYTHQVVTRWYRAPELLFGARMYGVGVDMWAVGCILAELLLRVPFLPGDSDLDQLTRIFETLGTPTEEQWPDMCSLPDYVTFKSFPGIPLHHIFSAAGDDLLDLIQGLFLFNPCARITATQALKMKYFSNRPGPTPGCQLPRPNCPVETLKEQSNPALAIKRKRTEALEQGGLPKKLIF
Sequence of CDK7 (P51946 whole entry partner): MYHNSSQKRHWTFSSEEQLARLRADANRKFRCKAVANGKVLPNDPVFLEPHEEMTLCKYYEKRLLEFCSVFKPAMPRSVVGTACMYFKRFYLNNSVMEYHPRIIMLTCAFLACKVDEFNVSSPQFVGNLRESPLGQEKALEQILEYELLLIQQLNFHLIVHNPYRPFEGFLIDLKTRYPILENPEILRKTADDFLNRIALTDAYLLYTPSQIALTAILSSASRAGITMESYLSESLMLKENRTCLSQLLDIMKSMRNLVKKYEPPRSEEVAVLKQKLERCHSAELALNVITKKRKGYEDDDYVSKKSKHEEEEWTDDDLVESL
Sequence of CDK7 (P51948 whole entry partner): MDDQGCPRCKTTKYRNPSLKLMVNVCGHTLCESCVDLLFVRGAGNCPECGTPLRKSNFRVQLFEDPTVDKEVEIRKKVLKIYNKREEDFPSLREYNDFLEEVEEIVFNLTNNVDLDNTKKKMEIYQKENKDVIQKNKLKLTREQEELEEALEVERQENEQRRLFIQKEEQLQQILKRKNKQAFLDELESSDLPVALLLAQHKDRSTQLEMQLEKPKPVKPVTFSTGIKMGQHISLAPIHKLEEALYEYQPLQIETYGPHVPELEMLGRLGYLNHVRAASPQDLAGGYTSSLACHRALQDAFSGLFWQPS
Sequence of CDK4 (P11802 whole entry): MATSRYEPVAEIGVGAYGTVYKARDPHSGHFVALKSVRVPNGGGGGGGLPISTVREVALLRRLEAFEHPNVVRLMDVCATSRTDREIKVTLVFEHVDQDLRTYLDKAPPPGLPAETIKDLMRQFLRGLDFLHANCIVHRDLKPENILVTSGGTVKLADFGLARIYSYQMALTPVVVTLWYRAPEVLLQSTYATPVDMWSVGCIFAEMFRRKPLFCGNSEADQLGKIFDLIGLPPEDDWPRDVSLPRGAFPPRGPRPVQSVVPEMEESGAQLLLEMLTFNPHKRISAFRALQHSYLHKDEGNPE
Sequence of CDK4 (P24385 whole entry partner): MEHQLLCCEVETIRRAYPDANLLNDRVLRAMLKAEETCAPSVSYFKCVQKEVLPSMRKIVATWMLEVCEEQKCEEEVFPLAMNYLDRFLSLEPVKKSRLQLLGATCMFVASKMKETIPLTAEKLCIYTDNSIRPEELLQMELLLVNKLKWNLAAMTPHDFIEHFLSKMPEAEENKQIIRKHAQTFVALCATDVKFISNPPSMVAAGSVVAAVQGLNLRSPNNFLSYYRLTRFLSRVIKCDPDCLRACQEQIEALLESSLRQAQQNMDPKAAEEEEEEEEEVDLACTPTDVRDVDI

IC50 CDK7, in words [1]: nanomolar range | IC50 CDK4, in words [2]: nanomolar range | IC50 CDK1, in words [3]: nanomolar range | IC50 CDK9, in words [4]: nanomolar range | IC50 CDK2, in words [5]: nanomolar range
SMILES: CC1(C)/C(=C2/C(=O)Nc3ccc(S(N)(=O)=O)cc32)Nc2ccccc21 [ZK-304709, (Z)-3,3-dimethyl-2′-oxo-[2,3′-biindolinylidene]-5′-sulfonamide]
